ChEMBL document CHEMBL6078687 (J Med Chem, 2024)

What was measured:
[1] = Metabolic stability in human plasma assessed as half life at 2 uM incubated upto 120 mins by LC-MS/MS analysis; assay type: ADME, cell-free
[2] = Inhibition of neuraminidase in Influenza A virus A/Goose/Guangdong/SH7/2013 H5N1 using MUNANA as substrate incubated for 40 mins by […] based assay
[3] = Tmax in Sprague-Dawley rat at 2 mg/kg, iv measured for 15 to 1440 mins by LC-MS/MS analysis; assay type: ADME, organism-based; conditions: in vivo, time 15-1440 min
[4] = Tmax in Sprague-Dawley rat at 20 mg/kg, po measured for 15 to 1440 mins by LC-MS/MS analysis; assay type: ADME, organism-based; conditions: in vivo, time 15-1440 min
[5] = MRT (0 to t) in Sprague-Dawley rat at 20 mg/kg, po measured for 15 to 1440 mins by LC-MS/MS analysis; assay type: ADME, organism-based; conditions: in vivo, time 15-1440 min
in vivo [6] = conditions: Sprague-Dawley, rat, iv, 2 mg/kg
in vitro [7] = conditions: human, liver microsomes
Influenza A virus [8] = test: Antiviral activity against Influenza A virus A/WSN/67/05 H3N2 infected in MDCK cells assessed as inhibition of plaque formation measured after 2 days; conditions: A/WSN/67/05 H3N2, MDCK, 48 h
[9] = Acute toxicity in Kunming mouse assessed as signs of convulsion movements at 1000 mg/kg, IG measured for 1 week; assay type: organism-based; conditions: in vivo, po, 168 h, time 1 weeks
in vitro [10] = conditions: human, liver microsomes; remark: listed apart in the source
in vivo [11] = conditions: Sprague-Dawley, rat, po, 20 mg/kg
[12] = MRT (0 to infinity) in Sprague-Dawley rat at 2 mg/kg, iv measured for 15 to 1440 mins by LC-MS/MS analysis; assay type: ADME, organism-based; conditions: in vivo, time 15-1440 min
[13] = MRT (0 to t) in Sprague-Dawley rat at 2 mg/kg, iv measured for 15 to 1440 mins by LC-MS/MS analysis; assay type: ADME, organism-based; conditions: in vivo, time 15-1440 min
[14] = Clearance in Sprague-Dawley rat at 2 mg/kg, iv measured for 15 to 1440 mins by LC-MS/MS analysis; assay type: ADME, organism-based; conditions: in vivo, time 15-1440 min
in vivo [15] = conditions: Sprague-Dawley, rat, iv, 2 mg/kg; remark: listed apart in the source
[16] = Cytotoxicity against CEF cells incubated for 48 hrs by CCK8 assay; assay type: toxicity, cell-based, Gallus gallus; conditions: chicken
[17] = Acute toxicity in Kunming mouse assessed as increase in body weight at 1000 mg/kg, IG measured for 1 week; assay type: organism-based; conditions: in vivo, po, 168 h, time 1 weeks
Influenza A virus [18] = test: microbe, parasite or virus in culture; conditions: A/Goose/Jiangsu/1306/2014 H5N8, CEF, 48 h
[19] = Cmax in Sprague-Dawley rat at 20 mg/kg, po measured for 15 to 1440 mins by LC-MS/MS analysis; assay type: ADME, organism-based; conditions: in vivo, time 15-1440 min
[20] = Acute toxicity in Kunming mouse assessed as signs of appetite loss at 1000 mg/kg, IG measured for 1 week; assay type: organism-based; conditions: in vivo, po, 168 h, time 1 weeks
in vivo [21] = conditions: Sprague-Dawley, rat, po, 20 mg/kg; remark: listed apart in the source
[22] = Cytotoxicity against MDCK cells incubated for 48 hrs by MTT assay; assay type: toxicity, cell-based, Canis lupus familiaris; conditions: dog
[23] = Acute toxicity in Kunming mouse assessed as signs of sedation at 1000 mg/kg, IG measured for 1 week; assay type: organism-based; conditions: in vivo, po, 168 h, time 1 weeks
[24] = Metabolic stability in human liver microsomes assessed as compound remaining incubated for 60 mins by LC-MS/MS analysis; assay type: ADME, Microsome; conditions: 1 h
[25] = Acute toxicity in Kunming mouse assessed as drug tolerance at 1000 mg/kg, IG measured for 1 week; assay type: organism-based; conditions: in vivo, po, 168 h, time 1 weeks
[26] = Apparent volume of distribution in Sprague-Dawley rat at 2 mg/kg, iv measured for 15 to 1440 mins by LC-MS/MS analysis; assay type: ADME, organism-based; conditions: in vivo, time 15-1440 min, read-out: Vz
[27] = MRT (0 to infinity) in Sprague-Dawley rat at 20 mg/kg, po measured for 15 to 1440 mins by LC-MS/MS analysis; assay type: ADME, organism-based; conditions: in vivo, time 15-1440 min
[28] = Acute toxicity in Kunming mouse assessed as animal mortality at 1000 mg/kg, IG measured for 1 week; assay type: organism-based; conditions: in vivo, po, 168 h, time 1 weeks
Influenza A virus [29] = test: microbe, parasite or virus in culture; conditions: A/Goose/Guangdong/SH7/2013 H5N1, CEF, 48 h
[30] = Acute toxicity in Kunming mouse assessed as signs of disheveled fur at 1000 mg/kg, IG measured for 1 week; assay type: organism-based; conditions: in vivo, po, 168 h, time 1 weeks
[31] = Oral bioavailability in Sprague-Dawley rat at 20 mg/kg measured for 15 to 1440 mins by LC-MS/MS analysis; assay type: ADME, organism-based; conditions: in vivo, time 15-1440 min
[32] = Metabolic stability in human plasma assessed as compound remaining at 2 uM incubated upto 120 mins by LC-MS/MS analysis; assay type: ADME, cell-free; conditions: read-out: Stability
[33] = Half life in Sprague-Dawley rat at 20 mg/kg, po measured for 15 to 1440 mins by LC-MS/MS analysis; assay type: ADME, organism-based; conditions: in vivo, time 15-1440 min
[34] = Inhibition of neuraminidase in Influenza A virus A/Babol/36/2005 H3N2 using MUNANA as substrate incubated for 40 mins by […] based assay
[35] = Half life in Sprague-Dawley rat at 2 mg/kg, iv measured for 15 to 1440 mins by LC-MS/MS analysis; assay type: ADME, organism-based; conditions: in vivo, time 15-1440 min
[36] = Cmax in Sprague-Dawley rat at 2 mg/kg, iv measured for 15 to 1440 mins by LC-MS/MS analysis; assay type: ADME, organism-based; conditions: in vivo, time 15-1440 min
Influenza A virus [37] = test: microbe, parasite or virus in culture; conditions: A/PR/8/34 H1N1, MDCK, 48 h

Compound	half-life at 2 µM [1] [min]	IC50 [2] [nM]	Tmax [3] [min]	Tmax [4] [min]	MRT last [5] [min]	AUC(0-t) (in vivo [6]) [ng·h/mL]	CLint scaled at 2 h (in vitro [7]) [mL/min/kg]	EC50 (Influenza A virus [8]) [nM]	Activity [9]	microsomal CLint at 2 h (in vitro [10]) [µL/min/mg]	AUC(0-t) (in vivo [11]) [ng·h/mL]	MRT inf [12] [min]	MRT last [13] [min]	clearance [14] [mL/min/kg]	AUC(0-inf) (in vivo [15]) [ng·h/mL]	CC50 at 48 h [16] [nM]	Activity [17]	EC50 (Influenza A virus [18]) [nM]	Cmax [19] [ng/mL]	Activity [20]	also measured
CCC(CC)O[C@@H]1C=C(C(=O)O)C[C@H](NCc2ccc(OCc3cccc(B(O)O)c3)cc2C)[C@H]1NC(C)=O	> 289	90	4.98	1320	48.6	1370	10.1	67500	Non-toxic	11.2	12.7	7.8	7.8	24.8	1380	> 200000	Toxic	1270	10.4	Non-toxic	AUC(0-inf) (in vivo [21]): 20.3 ng·h/mL; EC50 at 48 h [22]: > 250000 nM; Activity [23]: Non-toxic; Stability [24]: 112.2%; Activity [25]: Non-toxic; Vd [26]: 0.511 L/kg; MRT inf [27]: 117 min; Activity [28]: Non-toxic; EC50 (Influenza A virus [29]): 1290 nM; Activity [30]: Non-toxic; bioavailability [31]: 0.15%; remaining at 2 h, 2 µM [32]: 99.3%; half-life [33]: 78.6 min; IC50 [34]: 470 nM; half-life [35]: 15 min; Cmax [36]: 4850 ng/mL; EC50 (Influenza A virus [37]): 8 nM
CCC(CC)O[C@@H]1C=C(C(=O)O)C[C@H](NCc2ccc(OCc3cccc(B(O)O)c3)cc2Cl)[C@H]1NC(C)=O	> 289	17	4.98	15	46.8	747	12.2	> 100000	Non-toxic	13.6	47	10.2	9.6	45.5	749	> 200000	Toxic	3260	57.5	Non-toxic	AUC(0-inf) (in vivo [21]): 48.8 ng·h/mL; EC50 at 48 h [22]: > 250000 nM; Activity [23]: Non-toxic; Stability [24]: 98.6%; Activity [25]: Non-toxic; Vd [26]: 1.12 L/kg; MRT inf [27]: 54.6 min; Activity [28]: Non-toxic; EC50 (Influenza A virus [29]): 5410 nM; Activity [30]: Non-toxic; bioavailability [31]: 0.65%; remaining at 2 h, 2 µM [32]: 104%; half-life [33]: 41.4 min; IC50 [34]: 260 nM; half-life [35]: 16.8 min; Cmax [36]: 2520 ng/mL; EC50 (Influenza A virus [37]): 8 nM
